This series in a line: Henry solubility constant Hcp at 298.15 K (mol/(m3 Pa)).
Setting [1] is: reference: Bakierowska and Trzeszczyński (2003).
The mark [2] stands for this setting: reference: Dohnal and Fenclová (1995).
Setting [3] is: reference: Feigenbrugel et al. (2004b).
[4] abbreviates: reference: Charles and Destaillats (2005).
The mark [5] stands for this setting: reference: Murphy et al. (1983a).
Where [6] appears, read: reference: Roberts and Pollien (1997).
The mark [7] stands for this setting: reference: Shunthirasingham et al. (2013).
Setting [8] is: reference: Souchon et al. (2004).
Where [9] appears, read: reference: Cetin and Odabasi (2005).
[10] abbreviates: reference: Wen and Muccitelli (1979).

Results on 57 compounds are retold here after Sander's compilation of Henry's law constants.

Several values for one entry are separate records, joined by “and”; a condition that tells them apart may be missing. Identical values can stand only once.

For the compound `ClC1C(Cl)C(Cl)C(Cl)C(Cl)C1Cl` (stereo not drawn) [α-1,2,3,4,5,6-hexachlorocyclohexane], the “Henry solubility constant Hcp” value (reference: Kucklick et al. (1991)) was 1.3 and the “Henry solubility constant Hcp” value (reference: Sahsuvar et al. (2003)) amounted to 1.7. On to `ClC1CCCCC1` [chlorocyclohexane], for which, under setting [1], the “Henry solubility constant Hcp” value is 0.0028. On to `C/C=C\CCl` [(Z)-1-chloro-2-butene], for which the “Henry solubility constant Hcp” value under setting [1] is 0.0012. Take `CCCl` [chloroethane]: the “Henry solubility constant Hcp” value reads like this: (reference: Chen et al. (2012)) 0.00076; (reference: Gossett (1987)) 0.00088; (reference: Maaßen (1995)) 0.00089; (reference: Reichl (1995)) 0.00093.

On to `C=C(C)C1CCC2(C)OC2C1` (centres undefined) [limonene oxide], for which the “Henry solubility constant Hcp” value (reference: Fichan et al. (1999)) amounted to 0.056.

As for `Cc1ccc(O)cc1` [1-hydroxy-4-methylbenzene], the “Henry solubility constant Hcp” value runs as follows: under setting [2], 13; under setting [3], 10; (reference: Parsons et al. (1972)) 13.

As to `C[C@@H]1CCCC[C@H]1C` (relative stereo) [trans-1,2-dimethylcyclohexane], the “Henry solubility constant Hcp” value (reference: Dohányosová et al. (2004)) was 1.6e-05. Consider `Brc1ccc(Oc2ccc(Br)cc2)cc1` [4,4'-dibromodiphenyl ether], for which the “Henry solubility constant Hcp” value under setting [4] was found to be 0.073.

Consider `O=C(O)C(F)(F)C(F)(F)C(F)(F)F` [perfluorobutanoic acid], for which the “Henry solubility constant Hcp” value (reference: Kwan (2001)) is 0.81. For the compound `Clc1cc(-c2ccc(Cl)c(Cl)c2Cl)cc(Cl)c1Cl` [2,3,3',4,4',5'-hexachlorobiphenyl], the “Henry solubility constant Hcp” value under setting [5] was 0.017.

`CCc1cccc2ccccc12` [1-ethylnaphthalene]: the “Henry solubility constant Hcp” value (reference: Schwarz and Wasik (1977)) was 0.022.

For the compound `FC(Cl)C(F)(F)F` (centres undefined) [1-chloro-1,2,2,2-tetrafluoroethane], the “Henry solubility constant Hcp” value by setting is: (reference: Kutsuna (2013)) 0.00011; (reference: Maaßen (1995)) 0.0001; (reference: Reichl (1995)) 0.00011. As to `O=C(O)C(F)(F)C(F)(F)C(F)(F)C(F)(F)C(F)(F)C(F)(F)C(F)(F)F` [pentadecafluorooctanoic acid], the “Henry solubility constant Hcp” value (reference: Kutsuna and Hori (2008b)) is 0.049; the “Henry solubility constant Hcp” value (reference: Kwan (2001)) was determined as 2.8; the “Henry solubility constant Hcp” value (reference: Li et al. (2007)) is 0.4. Take `OCC(F)(F)C(F)(F)F` [2,2,3,3,3-pentafluoro-1-propanol]: the “Henry solubility constant Hcp” value (reference: Chen et al. (2003)) was found to be 0.14; the “Henry solubility constant Hcp” value (reference: Rochester and Symonds (1973)) was determined as 0.45.

As to `O=C1OCc2c(Cl)c(Cl)c(Cl)c(Cl)c21` [4,5,6,7-tetrachlorophthalide], for the setting “reference: Kawamoto and Urano (1989)”, the “Henry solubility constant Hcp” value was determined as 18. Take `CCCCCO[N+](=O)[O-]` [1-pentyl nitrate]: under “reference: Hauff et al. (1998)”, the “Henry solubility constant Hcp” value was 0.0066.

Regarding `C1CC1` [cyclopropane], the “Henry solubility constant Hcp” value (reference: Saidman et al. (1966)) amounted to 0.00011.

For `CCCC(=O)CC` [3-hexanone], the “Henry solubility constant Hcp” value (reference: Hovorka et al. (2019)) was 0.076. Turning to `CC(=O)N1CCCC1` [N-acetylpyrrolidine], the “Henry solubility constant Hcp” value (reference: Gibbs et al. (1991)) was determined as 6200. In the case of `CCCCCC/C=C/C=O` [(E)-2-nonenal], under setting [6], the “Henry solubility constant Hcp” value came to 0.058. For the compound `Cc1ccc(N)cc1C` [3,4-dimethylbenzenamine], the “Henry solubility constant Hcp” value (reference: Jayasinghe et al. (1992)) was 5.3. `ClN(Cl)Cl` [nitrogen trichloride]: the “Henry solubility constant Hcp” value (reference: Holzwarth et al. (1984)) is 0.00099. For the compound `FC(F)=CCl` [2-chloro-1,1-difluoroethene], the “Henry solubility constant Hcp” value (reference: Maaßen (1995)) was 0.00017 and the “Henry solubility constant Hcp” value (reference: Reichl (1995)) worked out at 0.00017. Turning to `CCCCCCO` [1-hexanol], the “Henry solubility constant Hcp” value (reference: Gupta et al. (2000)) turned out to be 0.39, the “Henry solubility constant Hcp” value (reference: Lei et al. (2007)) is 0.51, the “Henry solubility constant Hcp” value under setting [7] is 0.57 and the “Henry solubility constant Hcp” value under setting [8] is 0.38.

Regarding `Clc1cc(Cl)c(-c2c(Cl)cc(Cl)c(Cl)c2Cl)cc1Cl` [2,2',3,4,4',5',6-heptachlorobiphenyl], the “Henry solubility constant Hcp” value under setting [5] is 0.016. Regarding `Brc1ccc(Oc2ccc(Br)cc2Br)cc1` [2,4,4'-tribromodiphenyl ether], the “Henry solubility constant Hcp” value reads like this: under setting [9], 0.18; under setting [4], 0.12; (reference: Long et al. (2017)) 0.16. In the case of `Clc1ccc(Cl)c(-c2cccc(Cl)c2Cl)c1` [2,2',3,5'-tetrachlorobiphenyl], the “Henry solubility constant Hcp” value under setting [5] is 0.041.

`CC(Cl)CCC(Cl)C(Cl)CCC(Cl)CCl` (stereo not drawn) [pentachlorodecane isomers]: the “Henry solubility constant Hcp” value (reference: Drouillard et al. (1998)) was 0.2 and 0.38. As for `CNC(C)=O` [N-methylacetamide], the “Henry solubility constant Hcp” value (reference: Bernauer and Dohnal (2008)) came to 3200.

Regarding `CC(=O)c1ccccc1` [1-phenylethanone], the “Henry solubility constant Hcp” value reads like this: (reference: Allen et al. (1998)) 0.97; (reference: Betterton (1991)) 1.1. As for `COCCOC` [1,2-dimethoxyethane], where the note is “reference: Ondo and Dohnal (2007)”, the “Henry solubility constant Hcp” value stood at 1.4. With `[Xe]` [xenon], the “Henry solubility constant Hcp” value is 4.2e-05 (reference: Crovetto et al. (1982)); 4.3e-05 (reference: Krause and Benson (1989)); 4.2e-05 (reference: Morrison and Johnstone (1954)); 4.4e-05 (reference: von Antropoff (1910)). Regarding `CC(Cc1ccc(C(C)(C)C)cc1)CN1CCCCC1` (centres undefined) [fenpropidin], the “Henry solubility constant Hcp” value (reference: Feigenbrugel and Le Calvé (2021)) was determined as 710. Turning to `CC(F)F` [1,1-difluoroethane], the “Henry solubility constant Hcp” value amounted to 0.0005 (reference: Maaßen (1995)), 0.00049 (reference: Reichl (1995)) and 0.00049 (reference: Zheng et al. (1997)).

In the case of `CCC(C)(C)O` [2-methyl-2-butanol], the “Henry solubility constant Hcp” value is 0.71 (reference: Butler et al. (1935)) and 0.72 (reference: Fenclová et al. (2010)). In the case of `COC(=O)OC` [carbonic acid, dimethyl ester], the “Henry solubility constant Hcp” value (reference: Böhme et al. (2008)) turned out to be 0.16.

As to `C[C@@H]1CCC[C@]2(C)CCCC[C@@]12O` [geosmin], under “reference: Ömür-Özbek and Dietrich (2005)”, the “Henry solubility constant Hcp” value is 0.081. For `O=COCC(F)(F)F` [2,2,2-trifluoroethyl methanoate], the “Henry solubility constant Hcp” value (reference: Kutsuna et al. (2005)) amounted to 0.0054. For `Clc1ccccc1-c1ccccc1Cl` [2,2'-dichlorobiphenyl], the “Henry solubility constant Hcp” value under setting [5] was 0.045. Take `Cc1cccc(O)c1` [1-hydroxy-3-methylbenzene]: the “Henry solubility constant Hcp” value by setting is: under setting [2], 12; under setting [3], 7.9.

As to `CCCS` [1-propanethiol], the “Henry solubility constant Hcp” value (reference: Coquelet and Richon (2005)) turned out to be 0.0017; the “Henry solubility constant Hcp” value (reference: Haimi et al. (2006)) amounted to 0.0018. In the case of `Clc1c(Cl)c(Cl)c2c(c1Cl)Oc1ccccc1O2` [1,2,3,4-tetrachlorodibenzo-p-dioxin], the “Henry solubility constant Hcp” value (reference: Santl et al. (1994)) is 0.5. In the case of `CSSSC` [2,3,4-trithiapentane], the “Henry solubility constant Hcp” value stood at 0.021 under setting [6] and 0.014 under setting [8].

Take `CCCCCC(=O)OC` [methyl hexanoate]: where the note is “reference: Aprea et al. (2007)”, the “Henry solubility constant Hcp” value turned out to be 0.019. `FC1(F)C(F)(F)C(F)(F)C1(F)F` [octafluorocyclobutane]: the “Henry solubility constant Hcp” value is 1.2e-06 (reference: Park et al. (1982)); 1.3e-06 (reference: Scharlin and Battino (1994)); 1.2e-06 under setting [10]. For the compound `O=Cc1ccccc1` [benzaldehyde], the “Henry solubility constant Hcp” value (reference: Allen et al. (1998)) was 0.35, the “Henry solubility constant Hcp” value (reference: Allou et al. (2011)) was 0.32 and the “Henry solubility constant Hcp” value under setting [8] came out at 0.34.

With `CC1=CC[C@H](C(C)C)C=C1` [(R)-(−)-α-phellandrene], for the setting “reference: Schuhfried et al. (2015)”, the “Henry solubility constant Hcp” value was 0.00034. For the compound `Clc1ccc(-c2ccc(Cl)cc2)cc1` [4,4'-dichlorobiphenyl], the “Henry solubility constant Hcp” value under setting [4] was 0.035. Regarding `CC(C)COC(=O)C(C)C` [2-methylpropyl 2-methylpropanoate], for the setting “reference: Amoore and Buttery (1978)”, the “Henry solubility constant Hcp” value is 0.01.

`[O][N+](=O)[O-]` [nitrogen trioxide]: the “Henry solubility constant Hcp” value (reference: Thomas et al. (1998)) is 0.018. Take `II` [iodine (molecular)]: the “Henry solubility constant Hcp” value (reference: Eguchi et al. (1973)) came out at 0.028. Regarding `CCC(CC)O[N+](=O)[O-]` [3-pentyl nitrate], the “Henry solubility constant Hcp” value (reference: Hauff et al. (1998)) is 0.0038. In the case of `CCOC(=O)CC(C)C` [ethyl 3-methylbutanoate], where the note is “reference: Wieland et al. (2015)”, the “Henry solubility constant Hcp” value was 0.011. Regarding `CCCCCCCCO` [1-octanol], the “Henry solubility constant Hcp” value reads like this: (reference: Lei et al. (2007)) 0.19; under setting [7], 0.21; (reference: Wu et al. (2022a)) 0.17. `Brc1c(Br)c(Br)c(Oc2c(Br)c(Br)c(Br)c(Br)c2Br)c(Br)c1Br` [decabromodiphenyl ether]: the “Henry solubility constant Hcp” value was 18 under setting [9] and 18 (reference: Long et al. (2017)). Turning to `FC(F)(F)C(F)(F)F` [hexafluoroethane], the “Henry solubility constant Hcp” value is 6.5e-07 (reference: Bonifácio et al. (2001)), 5.3e-07 (reference: Park et al. (1982)) and 5.6e-07 under setting [10].

For the compound `CC(=O)C(C)O` (centres undefined) [3-hydroxy-2-butanone], the “Henry solubility constant Hcp” value worked out at 0.57 (reference: Straver and de Loos (2005)); 3.1 (reference: Wu et al. (2022b)).
